One assay concerns the target T1, CaV2.2 (Homo sapiens, UniProt Q00975).
T1 construct: expressed in transfected cells; host or cells: HEK293
Nature of the assay: VIPR optical membrane potential assay with electrical stimulation, CaV2.2. The assay is classed as cell-based. The settings on record: Table 9, CaV 2.2 receptors. The method, then:
A. Optical Methods for Assaying CaV Inhibition Properties of Compounds:
(§1) Antagonist properties of test compounds were assessed as follows. Cells expressing the CaV of interest were placed into microtiter plates. After an incubation period, the cells were stained with fluorescent dyes sensitive to the transmembrane potential. The test compounds were added to the microtiter plate. The cells were stimulated with electrical means to evoke a CaV dependent membrane potential change from unblocked channels, which was detected and measured with trans-membrane potential-sensitive dyes. Antagonists were detected as a decreased membrane potential response to the stimulus.
(§2) VIPR® Optical Membrane Potential Assay Method with Electrical Stimulation
The following is an example of how CaV2.2 inhibition activity is measured using the optical membrane potential method. Other subtypes are performed in an analogous mode in a cell line expressing the CaV of interest.
HEK293 cells stably expressing CaV2.2 are plated into 96-well microtiter plates. After an appropriate incubation period, the cells are stained with the voltage sensitive dyes CC2-DMPE/DiSBAC2(3) as follows.
2X CC2-DMPE=20 μM CC2-DMPE: 10 mM CC2-DMPE is vortexed with an equivalent volume of 10% Pluronic, followed by vortexing in required amount of HBSS containing 10 mM HEPES. Each cell plate will require 5 mL of 2×CC2-DMPE. 50 μL of 2×CC2-DMPE is added to wells containing washed cells, resulting in a 10 μM final staining concentration. The cells are stained for 30 minutes in the dark at RT.
Vortex in required amount of Bath X with beta-cyclodextrin. Each 96 well cell plate will require 5 ml of 2XCC2DMPE. Wash plate with ELx405 with Bath X, leaving a residual volume of 50 μL/well. Add 50 μL of 2XCC2DMPE & […] to each well. Stain for 30 minutes in the dark at RT.
Allow solution to sit for 10 minutes. Slowly mix in 370 mM BaCl2. This solution can be used to solvate compound plates. Note that compound plates are made at 1.5× drug concentration and not the usual 2X. Wash CC2 stained plate, again, leaving residual volume of 50 μL. Add 100 uL/well of the AY17 solution. Stain for 15 minutes in the dark at RT. Run plate on the optical reader.
(§3) The instrument comprises a microtiter plate handler, an optical system for exciting the coumarin dye while simultaneously recording the coumarin and oxonol emissions, a waveform generator, a current- or voltage-controlled amplifier, and a device for inserting electrodes in well. Under integrated computer control, this instrument passes user-programmed electrical stimulus protocols to cells within the wells of the microtiter plate.
Insert or use electrodes into each well to be assayed.
Use the current-controlled amplifier to deliver stimulation wave pulses for 3-5 s. Two seconds of pre-stimulus recording are performed to obtain the un-stimulated intensities. Five seconds of post-stimulation recording are performed to examine the relaxation to the resting state.
(§4) Data are analyzed and reported as normalized ratios of background-subtracted emission intensities measured in the 460 nm and 580 nm channels. Background intensities are then subtracted from each assay channel. Background intensities are obtained by measuring the emission intensities during the same time periods from identically treated assay wells in which there are no cells. The response as a function of time is then reported as the ratios obtained using the following formula: […]
(§5) The data is further reduced by calculating the initial (Ri) and final (Rf) ratios. These are the average ratio values during part or all of the pre-stimulation period, and during sample points during the stimulation period. The response to the stimulus R=Rf/Ri is then calculated.
Control responses are obtained by performing assays in the presence of a compound with the desired properties (positive control), such as mibefradil, and in the absence of pharmacological agents (negative control).

Another assay addresses T2, NaV1.3 (Homo sapiens, UniProt Q9NY46).
T2 construct: expressed in transfected cells; host or cells: HEK293
Nature of the assay: VIPR optical membrane potential assay with electrical stimulation, NaV1.3. The format is cell-based. The conditions noted are these: Table 9, NaV 1.3 receptors. The method, then:
as §1, with “expressing the NaV of interest” for “expressing the CaV of interest”, “stimulated with either chemical or electrical means” for “stimulated with electrical means”, “evoke a NaV dependent membrane” for “evoke a CaV dependent membrane”
as §2
The following is an example of how NaV1.3 inhibition activity is measured using the optical membrane potential method#2. Other subtypes are performed in an analogous mode in a cell line expressing the NaV of interest.
HEK293 cells stably expressing NaV1.3 are plated into 96-well microtiter plates. After an appropriate incubation period, the cells are stained with the voltage sensitive dyes CC2-DMPE/DiSBAC2(3) as follows.
2X CC2-DMPE=20 μM CC2-DMPE: 10 mM CC2-DMPE is vortexed with an equivalent volume of 10% pluronic, followed by vortexing in required amount of HBSS containing 10 mM HEPES. Each cell plate will require 5 mL of 2×CC2-DMPE. 50 μL of 2×CC2-DMPE is added to wells containing washed cells, resulting in a 10 μM final staining concentration. The cells are stained for 30 minutes in the dark at RT.
2X DISBAC2(3) with ABSC1=6 μM DISBAC2(3) and 1 mM ABSC1: The required amount of 10 mM DISBAC2(3) is added to a 50 ml conical tube and mixed with 1 μL 10% pluronic for each mL of solution to be made and vortexed together. Then HBSS/HEPES is added to make up 2× solution. Finally, the ABSC1 is added.
The 2X DiSBAC2(3) solution can be used to solvate compound plates. Note that compound plates are made at 2× drug concentration. Wash stained plate again, leaving residual volume of 50 Add 50 μL/well of the 2X DiSBAC2(3) w/ABSC1. Stain for 30 minutes in the dark at RT.
as §3
• 1. Insert or use electrodes into each well to be assayed. • 2. Use the current-controlled amplifier to deliver stimulation wave pulses for 3 s. Two seconds of pre-stimulus recording are performed to obtain the un-stimulated intensities. Five seconds of post-stimulation recording are performed to examine the relaxation to the resting state. Data Analysis
as §4, §5
Control responses are obtained by performing assays in the presence of a compound with the desired properties (positive control), such as tetracaine, and in the absence of pharmacological agents (negative control). Responses to the negative (N) and positive (P) controls are calculated as above. The compound antagonist activity A is defined as: […]

Structures are written as SMILES.

T2 sequence (Q9NY46 whole entry): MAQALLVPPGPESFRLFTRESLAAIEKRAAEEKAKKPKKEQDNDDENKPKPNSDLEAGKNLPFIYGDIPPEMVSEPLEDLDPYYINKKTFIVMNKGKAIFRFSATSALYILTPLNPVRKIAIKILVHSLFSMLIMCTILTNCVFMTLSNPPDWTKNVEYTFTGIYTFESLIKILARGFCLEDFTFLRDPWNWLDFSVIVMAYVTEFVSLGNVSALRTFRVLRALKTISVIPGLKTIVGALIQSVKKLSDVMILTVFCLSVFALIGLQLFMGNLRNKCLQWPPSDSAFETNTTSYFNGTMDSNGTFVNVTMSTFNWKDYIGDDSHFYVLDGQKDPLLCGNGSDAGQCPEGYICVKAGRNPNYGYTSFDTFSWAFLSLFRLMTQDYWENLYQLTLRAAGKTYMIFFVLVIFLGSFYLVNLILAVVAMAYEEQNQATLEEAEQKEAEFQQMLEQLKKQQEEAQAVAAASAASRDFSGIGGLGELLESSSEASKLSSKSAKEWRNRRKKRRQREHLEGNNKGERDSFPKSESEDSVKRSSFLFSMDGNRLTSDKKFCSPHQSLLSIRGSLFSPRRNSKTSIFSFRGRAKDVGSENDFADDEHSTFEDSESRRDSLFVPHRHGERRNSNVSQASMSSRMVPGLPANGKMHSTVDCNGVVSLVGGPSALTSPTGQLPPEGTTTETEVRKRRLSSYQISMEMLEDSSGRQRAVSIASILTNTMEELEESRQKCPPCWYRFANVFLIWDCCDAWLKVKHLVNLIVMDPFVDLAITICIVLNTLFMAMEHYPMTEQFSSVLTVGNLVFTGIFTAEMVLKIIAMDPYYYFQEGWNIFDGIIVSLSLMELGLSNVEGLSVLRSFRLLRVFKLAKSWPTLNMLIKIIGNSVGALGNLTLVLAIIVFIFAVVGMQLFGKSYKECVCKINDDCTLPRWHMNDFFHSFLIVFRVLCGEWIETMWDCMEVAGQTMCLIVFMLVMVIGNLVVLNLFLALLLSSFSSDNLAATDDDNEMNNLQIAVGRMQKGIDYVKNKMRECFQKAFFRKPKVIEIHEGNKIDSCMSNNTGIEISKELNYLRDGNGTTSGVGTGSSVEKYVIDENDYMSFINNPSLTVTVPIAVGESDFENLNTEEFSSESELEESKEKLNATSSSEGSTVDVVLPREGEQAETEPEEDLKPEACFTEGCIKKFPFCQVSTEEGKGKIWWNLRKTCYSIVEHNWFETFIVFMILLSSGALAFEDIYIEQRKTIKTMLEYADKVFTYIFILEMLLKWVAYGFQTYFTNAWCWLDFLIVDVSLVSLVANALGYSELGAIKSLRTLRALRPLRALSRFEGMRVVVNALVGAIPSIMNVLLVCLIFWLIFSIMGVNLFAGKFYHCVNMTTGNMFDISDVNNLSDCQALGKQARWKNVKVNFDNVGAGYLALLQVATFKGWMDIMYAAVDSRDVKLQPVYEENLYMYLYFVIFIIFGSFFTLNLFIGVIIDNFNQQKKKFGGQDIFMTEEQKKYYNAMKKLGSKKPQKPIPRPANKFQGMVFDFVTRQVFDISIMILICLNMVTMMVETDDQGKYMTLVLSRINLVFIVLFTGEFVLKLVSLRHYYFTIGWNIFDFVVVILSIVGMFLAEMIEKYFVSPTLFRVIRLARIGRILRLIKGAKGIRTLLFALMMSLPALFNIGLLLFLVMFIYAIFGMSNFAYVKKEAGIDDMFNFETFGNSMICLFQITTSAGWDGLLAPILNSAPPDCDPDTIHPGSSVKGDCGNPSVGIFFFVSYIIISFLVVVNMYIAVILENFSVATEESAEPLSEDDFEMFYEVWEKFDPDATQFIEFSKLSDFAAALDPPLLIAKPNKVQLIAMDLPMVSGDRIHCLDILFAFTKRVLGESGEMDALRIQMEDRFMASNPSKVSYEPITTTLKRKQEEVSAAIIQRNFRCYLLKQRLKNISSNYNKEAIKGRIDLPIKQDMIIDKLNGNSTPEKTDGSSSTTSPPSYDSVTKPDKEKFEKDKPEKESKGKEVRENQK

As for `CCN(Cc1cccc(C)c1)C(=O)c1cnc(N2CCN(C(C)=O)CC2)nc1-c1ccc(C#N)cc1` [compound 208], the IC50 on CaV2.2 and on NaV1.3 was above 10 µM each time. On to `CCN(Cc1cccc(C)c1)C(=O)c1cnc(NCC2CC2)nc1-c1ccccc1F` [compound 209], for which the half-inhibitory concentration (IC50) against CaV2.2 and against NaV1.3 was above 10 µM each time. Turning to `N#Cc1ccc(-c2nc(NC3CCCCC3)ncc2C(=O)N2CCCC2)cc1` [compound 210], the IC50 on CaV2.2 and on NaV1.3 was above 10 µM throughout. Regarding `CC(C)N(Cc1ccccc1)C(=O)c1cnc(N2CCCC2)nc1-c1ccc(C#N)cc1` [compound 211], the 50% inhibitory concentration (IC50) at CaV2.2 and at NaV1.3 was above 10 µM in each case. Molecule `O=C(NCC1CC1)c1cnc(N2CCOCC2)nc1-c1ccccc1F` [compound 212] registered an IC50 against CaV2.2 above 10 µM. On the same count and under the same terms, the figure for `CCC(C)NC(=O)c1cnc(N2CCOCC2)nc1-c1ccccc1F` (centres unmarked) [compound 213] is above 10 µM. Same read-out and setting: the figure for `CCCCNC(=O)c1cnc(NCCCC)nc1-c1cccc(C)c1` [compound 214] is above 10 µM. Still for that read-out and setting: the figure for `CC(C)CN(C)C(=O)c1cnc(N2CCOCC2)nc1-c1ccccc1F` [compound 215] is above 10 µM. Consider `CC(=O)N1CCN(c2ncc(C(=O)N(Cc3ccccc3)C(C)C)c(-c3ccccc3F)n2)CC1` [compound 216], for which the IC50 against CaV2.2 and at NaV1.3 was above 10 µM throughout. As for `CC1C(NC(=O)c2cnc(N3CCOCC3)nc2-c2ccc(C#N)cc2)CC2CC1C2(C)C` (centres unmarked) [compound 217], the IC50 on CaV2.2 and on NaV1.3 was above 10 µM in each case. For the molecule `CCCCNC(=O)c1cnc(NC2CCCC2)nc1-c1cccc(C)c1` [compound 218], the half-inhibitory concentration (IC50) at CaV2.2 and at NaV1.3 was above 10 µM in each case. Turning to `CCC1CCC(C)N(C(=O)c2cnc(NCC3CC3)nc2-c2ccccc2F)C1` (centres unmarked) [compound 219], the figures for the IC50 at CaV2.2 and on NaV1.3 were 2 to 10 µM and above 10 µM, respectively. The corresponding values for `CC1CC(C)CN(C(=O)c2cnc(NCCc3cccc(F)c3)nc2-c2ccc(C#N)cc2)C1` (centres unmarked) [compound 220] are 2 to 10 µM and above 10 µM. `CC1CCN(C(=O)c2cnc(NCc3ccccc3C(F)(F)F)nc2-c2ccc(C#N)cc2)CC1` [compound 221] had a half-maximal inhibitory concentration (IC50) against CaV2.2 above 10 µM. Consider `CCN(Cc1ccccc1)C(=O)c1cnc(NCc2ccc3c(c2)OCO3)nc1-c1ccccc1F` [compound 222], for which the IC50 at CaV2.2 and against NaV1.3 was above 10 µM each time.

Consider `CCN(C)c1ncc(C(=O)NCCCOC)c(-c2cccc(C)c2)n1` [compound 223], for which the concentration for half-maximal inhibition (IC50) at CaV2.2 and against NaV1.3 was above 10 µM each time.

On to `O=C(NCc1ccccc1)c1cnc(NCCc2cccc(F)c2)nc1-c1ccccc1F` [compound 224], for which the 50% inhibitory concentration (IC50) against CaV2.2 and at NaV1.3 was above 10 µM each time. Turning to `CC(=O)N1CCN(c2ncc(C(=O)N(C)CC(C)C)c(-c3ccc(-c4ccccc4)cc3)n2)CC1` [compound 225], the IC50 on CaV2.2 was 2 to 10 µM; on NaV1.3 it was above 10 µM.

`CC(=O)N1CCN(c2ncc(C(=O)N3CCOCC3)c(-c3cccc(C)c3)n2)CC1` [compound 226]: the IC50 on CaV2.2 and against NaV1.3 was above 10 µM throughout. Take `CCN(C)c1ncc(C(=O)N(C)C2CCCCC2)c(-c2ccc(C#N)cc2)n1` [compound 227]: the IC50 on CaV2.2 and against NaV1.3 was above 10 µM each time. On to `CCC(C)NC(=O)c1cnc(NC2CC3CC(C2C)C3(C)C)nc1-c1ccc(C#N)cc1` (centres unmarked) [compound 228], for which the half-maximal inhibitory concentration (IC50) at CaV2.2 and against NaV1.3 was above 10 µM each time.

Consider `O=C(c1cnc(N2CCOCC2)nc1-c1ccc(-c2ccccc2)cc1)N1CCCCC1` [compound 229], for which the half-maximal inhibitory concentration (IC50) against CaV2.2 and against NaV1.3 was above 10 µM in each case. Regarding `CCC(C)NC(=O)c1cnc(N(C)CC(C)C)nc1-c1ccc(C#N)cc1` (centres unmarked) [compound 230], the half-inhibitory concentration (IC50) on CaV2.2 and against NaV1.3 was above 10 µM in each case. `CCN(C)C(=O)c1cnc(NCCc2ccc(OC)cc2)nc1-c1cccc(C)c1` [compound 234] yielded an IC50 on CaV2.2 above 10 µM. Same read-out and setting: the figure for `N#Cc1ccc(-c2nc(NCCc3cccc(F)c3)ncc2C(=O)NCc2ccccc2)cc1` [compound 249] is above 10 µM. Still for that read-out and setting: under `O=C(c1cnc(N2CCOCC2)nc1-c1ccccc1F)N1CCCC1` [compound 250] stands above 10 µM; under `CC1CCCCC1NC(=O)c1cnc(N2CCOCC2)nc1-c1ccccc1F` (centres unmarked) [compound 254], above 10 µM. Same read-out and setting: under `O=C(c1cnc(N2CCOCC2)nc1-c1ccccc1F)N1CCOCC1` [compound 275] stands above 10 µM; under `CC(=O)N1CCN(c2ncc(C(=O)N3CCCCC3)c(-c3ccc(-c4ccccc4)cc3)n2)CC1` [compound 278], 2 to 10 µM. In turn, `CN(C(=O)c1cnc(N2CCOCC2)nc1-c1ccccc1F)C1CCCCC1` [compound 283] displayed an IC50 at CaV2.2 above 10 µM. The molecule `N#Cc1ccc(-c2nc(N3CCOCC3)ncc2C(=O)NCc2ccccc2C(F)(F)F)cc1` [compound 287] had a concentration for half-maximal inhibition (IC50) against CaV2.2 above 10 µM. The molecule `CCN(Cc1ccccc1)C(=O)c1cnc(NC2CCCC2)nc1-c1ccccc1F` [compound 311] yielded a half-maximal inhibitory concentration (IC50) at CaV2.2 above 10 µM.

As to `CCN(C)c1ncc(C(=O)N(Cc2ccccc2)C(C)C)c(-c2ccccc2F)n1` [compound 312], at CaV2.2, the 50% inhibitory concentration (IC50) lay in the range of 2 to 10 µM. `CCOCCN(CCOCC)C(=O)c1cnc(N2CCOCC2)nc1-c1ccccc1F` [compound 315] returned a 50% inhibitory concentration (IC50) at CaV2.2 above 10 µM. The same measure, in the same setting: under `Cc1cccc(-c2nc(NCc3cccc(Cl)c3)ncc2C(=O)N2CCOCC2)c1` [compound 318] stands above 10 µM; under `O=C(NCC1CCCCC1)c1cnc(N2CCOCC2)nc1-c1ccccc1F` [compound 328], above 10 µM. On the same count and under the same terms, under `CCN(Cc1cccc(C)c1)C(=O)c1cnc(N2CCCC2)nc1-c1ccccc1F` [compound 335] stands 2 to 10 µM; under `Cc1nc(N2CCOCC2)nc(-c2ccccc2F)c1C(=O)N(Cc1ccccc1)C(C)C` [compound 338, N-benzyl-4-(2-fluorophenyl)-N-isopropyl-6-methyl-2-morpholinopyrimidine-5-carboxamide], above 10 µM.

The term IC50 denotes the point on the concentration scale where inhibition reaches its midpoint. Read a high IC50 as weaker potency.

The record behind these values is patent publication US8546414B2, “Ion channel modulators and methods of use” (Vertex Pharmaceuticals Incorporated, priority 2004, dated 2013).
